Data reported in US20210308089A1, “METHODS OF TREATING AND/OR PREVENTING VIRAL INFECTIONS AND/OR DISEASES CAUSED BY VIRUSES IN A SUBJECT IN NEED THEREOF” (priority 2020, published 2021).

Test system: patients of the REDUCE-IT and earlier EPA placebo-controlled trials
Test: Example 3: adverse events by risk ratio, icosapent ethyl vs placebo (candidate categories; infectious disease terms of interest)
Settings: R-I
[1] = Cognitive Decline: Attention disorders and disturbances
[2] = Cognitive Decline: Cognitive and attention disorders and disturbances
[3] = Depression: Depressed mood disorders and disturbances
[4] = Depression: Depressive disorders
[5] = Depression: Depressive disorders - Depression
[6] = Depression: Depressive disorders - Major depression
[7] = Depression: Depressive disorders - Persistent depressive disorder
[8] = Depression: Depressive disorders- Agitated depression
[9] = Depression: Mood alterations - Depressed mood
[10] = Depression: Mood alterations - Depressive symptom
[11] = Depression: Mood alterations with depressive symptoms
[12] = Glomerulonephritis and Nephrotic Syndrome

`CC/C=C\C/C=C\C/C=C\C/C=C\C/C=C\CCCC(=O)OCC` [icosapent ethyl, eicosapentaenoic acid ethyl ester] was tested, and the ARR (Bipolar Disease) was −0.0%, the NNT (Bipolar Disease) was 2045 and the “Risk Ratio (95% CI)” value (Bipolar Disease) was 0.333 (0.035 to 3.204) 4. For the same compound, the ARR (Blood CPK increased) was −0.6%, the NNT (Blood CPK increased) was 164 and the “Risk Ratio (95% CI)” value (Blood CPK increased) was 0.684 (0.485 to 0.964) 2. For the same compound, the ARR (Bone Fractures) was 0.0%, the NNT (Bone Fractures) was −4088 and the “Risk Ratio (95% CI)” value (Bone Fractures) was 2.000 (0.181 to 22.053) −3. The ARR (Breast Cancer) was 0.0%, the NNT (Breast Cancer) was −2389144 and the “Risk Ratio (95% CI)” value (Breast Cancer) was 1.000 (0.351 to 2.849) −1. The ARR (CKD) was 0.1%, the NNT (CKD) was −680 and the “Risk Ratio (95% CI)” value (CKD) was 1.123 (0.766 to 1.646) −1. The ARR (COPD) was 0.2%, the NNT (COPD) was −453 and the “Risk Ratio (95% CI)” value (COPD) was 1.084 (0.837 to 1.405) −1. For the same compound, the ARR (Chrohn's Disease) was −0.0%, the NNT (Chrohn's Disease) was 2045 and the “Risk Ratio (95% CI)” value (Chrohn's Disease) was 0.333 (0.035 to 3.204) 4. For the same compound, the ARR (Chronic Lymphycytic Leukaemia) was 0.1%, the NNT (Chronic Lymphycytic Leukaemia) was −1363 and the “Risk Ratio (95% CI)” value (Chronic Lymphycytic Leukaemia, case counts given) was “[3 drug vs 0 PBO]”. The ARR [1] was 0.0%, the NNT [1] was −8362005 and the “Risk Ratio (95% CI)” value [1] was 1.000 (0.141 to 7.097) −1. For the same compound, the ARR [2] was 0.0%, the NNT [2] was −8362005 and the “Risk Ratio (95% CI)” value [2] was 1.000 (0.141 to 7.097) −1. The “Risk Ratio (95% CI)” value (Cognitive Decline: Cognitive disturbances) was “[No cases in study]”, the ARR (Colon Cancer) was 0.1% and the NNT (Colon Cancer) was −1022. The “Risk Ratio (95% CI)” value (Colon Cancer) was 2.000 (0.603 to 6.638) −3, the ARR (Cough) was −0.2% and the NNT (Cough) was 455. The “Risk Ratio (95% CI)” value (Cough) was 0.526 (0.245 to 1.131) 3, the “Risk Ratio (95% CI)” value (Cystic Fibrosis) was “[No cases in study]” and the ARR (Decreased Appetite) was 0.5%. The NNT (Decreased Appetite) was −215, the “Risk Ratio (95% CI)” value (Decreased Appetite) was 2.584 (1.329 to 5.024) −4 and the ARR (Deep Venous Thromboembolism) was −0.1%. For the same compound, the NNT (Deep Venous Thromboembolism) was 1364, the “Risk Ratio (95% CI)” value (Deep Venous Thromboembolism) was 0.625 (0.205 to 1.909) 2 and the ARR [3] was 0.3%. The NNT [3] was −340, the “Risk Ratio (95% CI)” value [3] was 1.106 (0.861 to 1.422) −1 and the ARR [4] was 0.3%. The NNT [4] was −314, the “Risk Ratio (95% CI)” value [4] was 1.123 (0.867 to 1.454) −1 and the ARR [5] was 0.2%. The NNT [5] was −408, the “Risk Ratio (95% CI)” value [5] was 1.097 (0.843 to 1.428) −1 and the ARR [6] was 0.0%. The NNT [6] was −2044, the “Risk Ratio (95% CI)” value [6] was 3.001 (0.312 to 28.836) −4 and the ARR [7] was 0.0%. The NNT [7] was −4088, the “Risk Ratio (95% CI)” value [7] was 2.000 (0.181 to 22.053) −3 and the ARR [8] was 0.0%. For the same compound, the NNT [8] was −2044, the “Risk Ratio (95% CI)” value (Depression: Depressive disorders- Agitated depression, case counts given) was “[2 drug vs 0 PBO]” and the ARR [9] was 0.0%. The NNT [9] was −3344802, the “Risk Ratio (95% CI)” value [9] was 1.000 (0.290 to 3.452) −1 and the ARR [10] was −0.0%. The NNT [10] was 4091, the “Risk Ratio (95% CI)” value [10] was 0.500 (0.045 to 5.513) 3 and the ARR [11] was −0.0%. For the same compound, the NNT [11] was 4096, the “Risk Ratio (95% CI)” value [11] was 0.857 (0.288 to 2.549) 1 and the ARR (Dermatitis psoriasiform) was 0.0%. The NNT (Dermatitis psoriasiform) was −4089, the “Risk Ratio (95% CI)” value (Dermatitis psoriasiform, case counts given) was “[1 drug vs 0 PBO]” and the ARR (Dermatitis, allergic) was −0.2%. The NNT (Dermatitis, allergic) was 454, the “Risk Ratio (95% CI)” value (Dermatitis, allergic) was 0.250 (0.071 to 0.885) 4 and the ARR (Diabetic Nephropathy) was −0.0%. The NNT (Diabetic Nephropathy) was 4100, the “Risk Ratio (95% CI)” value (Diabetic Nephropathy) was 0.909 (0.387 to 2.139) 1 and the ARR (Dry Eye) was 0.1%. The NNT (Dry Eye) was −1020, the “Risk Ratio (95% CI)” value (Dry Eye) was 1.129 (0.698 to 1.828) −1 and the ARR (ESRD) was −0.0%. The NNT (ESRD) was 4092, the “Risk Ratio (95% CI)” value (ESRD) was 0.667 (0.111 to 3.989) 2 and the ARR (Embolism and Thrombosis) was 0.1%. For the same compound, the NNT (Embolism and Thrombosis) was −1358, the “Risk Ratio (95% CI)” value (Embolism and Thrombosis) was 1.064 (0.716 to 1.581) −1 and the ARR (Epilepsy) was 0.0%. The NNT (Epilepsy) was −1.67e+07, the “Risk Ratio (95% CI)” value (Epilepsy) was 1.000 (0.063 to 15.986)−1 and the ARR (Erectile dysfunction) was −0.4%. The NNT (Erectile dysfunction) was 232, the “Risk Ratio (95% CI)” value (Erectile dysfunction) was 0.784 (0.535 to 1.151) 2 and the ARR (Gastric Cancer) was 0.0%. The NNT (Gastric Cancer) was −4088, the “Risk Ratio (95% CI)” value (Gastric Cancer) was 2.000 (0.181 to 22.053) −3 and the ARR (Gastroesophageal reflux) was −0.1%. For the same compound, the NNT (Gastroesophageal reflux) was 682, the “Risk Ratio (95% CI)” value (Gastroesophageal reflux) was 0.333 (0.090 to 1.231) 4 and the ARR [12] was −0.1%. For the same compound, the NNT [12] was 1023, the “Risk Ratio (95% CI)” value (Glomerulonephritis and Nephrotic Syndrome, case counts given) was “[0 drug vs 4 PBO]” and the ARR (Guttate psoriasis) was 0.0%. For the same compound, the NNT (Guttate psoriasis) was −4089.
